The test system of this experiment is human skin fibroblast derived from four different donors. Put plainly: Gene transfer efficiency, double positive cells, fibroblast of four donors, gene transfer two times (Example 12). Particulars: sixth day of culture, N=2. It counts as cell-based. On the procedure:
Gene transfer efficiencies using a plurality of retrovirus vectors with Retronectin or polybrene were further compared. Introduction of a fluorescent protein gene was carried out targeting human skin fibroblast derived from four different donors, using a method of performing gene transfer two times as in the pluripotent stem cell inducing experiment. In the present Example, the cell A indicates derived from a person, the cell B indicates derived from a person, the cell C indicates derived from a person, and the cell D indicates derived from a person (all manufactured by Lonza).
According to the same manner as that of Example 8-(1), immobilization of Retronectin on a culture plate was carried out.
According to the same manner as that of Example 8-(2), gene transfer was carried out (day 0 of culturing), provided that a group in which a virus solution was diluted 10-fold, 100-fold or 1000-fold with 10F-DMEM was set.
According to the same manner as that of Example 8-(3), a gene transfer efficiency was measured on the sixth day of culture. […] In addition, the number in the Table indicates an average value of N=2.

Regarding “Retronectin: fragment of fibronectin having a heparin-II binding region (registered trademark, CH-296, TAKARA BIO INC.)”, the “Ratio of double positive cells” value (Cell A, Virus 10-fold dilution) is 55.9; the “Ratio of double positive cells” value (Cell A, Virus 100-fold dilution) worked out at 61.6; the “Ratio of double positive cells” value (Cell A, Virus 1000-fold dilution) stood at 51.9; the “Ratio of double positive cells” value (Cell A, Virus stock solution) amounted to 42.5; the “Ratio of double positive cells” value (Cell B, Virus 10-fold dilution) worked out at 49.7; the “Ratio of double positive cells” value (Cell B, Virus 100-fold dilution) is given as 57.7. Further, the “Ratio of double positive cells” value was 48.7 (Cell B, Virus 1000-fold dilution); 35.9 (Cell B, Virus stock solution); 54.6 (Cell C, Virus 10-fold dilution); 60.2 (Cell C, Virus 100-fold dilution); 46.4 (Cell C, Virus 1000-fold dilution); 42.1 (Cell C, Virus stock solution). In addition, the “Ratio of double positive cells” value (Cell D, Virus 10-fold dilution) was determined as 54.2; the “Ratio of double positive cells” value (Cell D, Virus 100-fold dilution) stood at 63.2; the “Ratio of double positive cells” value (Cell D, Virus 1000-fold dilution) turned out to be 51.0; the “Ratio of double positive cells” value (Cell D, Virus stock solution) was determined as 38.4.

The record behind these values is patent US9238797B2, “Method for production of pluripotent stem cell” (TAKARA BIO INC., priority 2008, dated 2016).
